The source of these data is ChEMBL document CHEMBL3046832, “Synthesis of some sulfonamides, disubstituted sulfonylureas or thioureas and some structurally related variants. A class of promising antitumor agents” (2007).

Common to all, as to assay type: functional
Test [1] has as its system OVCAR-8. The test can be described thus: Cytotoxicity against Homo sapiens (human) OVCAR8 cells after 48 hr by SRB assay. The settings on record: OVCAR-8, 48 h. On the technique in general: Sulforhodamine B stains cellular protein and so reports cell mass.
In test [2] the test system is SF-295. The test can be described thus: Cytotoxicity against Homo sapiens (human) SF295 cells after 48 hr by SRB assay. The settings on record: SF-295, 48 h.
Test [3] can be described thus: Cytotoxicity against Homo sapiens (human) colon cancer cells after 48 hr by SRB assay. The note with it: Cancer cell lines.
Test [4] concerns CCRF-CEM. The test can be described thus: Cytotoxicity against Homo sapiens (human) CCRF-CEM cells after 48 hr by SRB assay.
Test [5] has as its system TK-10. In words: Cytotoxicity against Homo sapiens (human) TK10 cells after 48 hr by SRB assay. The note with it: TK-10, 48 h.
For test [6], the system named is K562. In words: Cytotoxicity against Homo sapiens (human) K562 cells after 48 hr by SRB assay. The note with it: K562, 48 h.
The subject of test [7] is SN12C. The test can be described thus: Cytotoxicity against Homo sapiens (human) SN12C cells after 48 hr by SRB assay.
Test [8] concerns HOP-92. In words: Cytotoxicity against Homo sapiens (human) HOP92 cells after 48 hr by SRB assay. The settings on record: HOP-92, 48 h.
The test system of test [9] is HCT-116. The test can be described thus: Cytotoxicity against Homo sapiens (human) HCT116 cells after 48 hr by SRB assay. The settings on record: HCT-116, 48 h.
The test system of test [10] is NCI-H226. The test can be described thus: Cytotoxicity against Homo sapiens (human) NCI-H226 cells after 48 hr by SRB assay. The settings on record: NCI-H226, 48 h.
The subject of test [11] is SNB-75. In words: Cytotoxicity against Homo sapiens (human) SNB75 cells after 48 hr by SRB assay. The settings on record: SNB-75, 48 h.
Test [12] deals with Hs-578T. The test can be described thus: Cytotoxicity against Homo sapiens (human) Hs578T cells after 48 hr by SRB assay.
Test [13] has as its system OVCAR-5. In words: Cytotoxicity against Homo sapiens (human) OVCAR5 cells after 48 hr by SRB assay. The note with it: OVCAR-5, 48 h.
Test [14] concerns HOP-62. The test can be described thus: Cytotoxicity against Homo sapiens (human) HOP62 cells after 48 hr by SRB assay. The settings on record: HOP-62, 48 h.
The test system of test [15] is NCI-H460. In words: Cytotoxicity against Homo sapiens (human) NCI-H460 cells assessed as cellular growth after 48 hr by Alamar blue assay. Details: concentration or dose not given beside the values. On the technique in general: The colour change of resazurin is a common sign of viable cells or microbes.
Test [16] concerns LOX IMVI. In words: Cytotoxicity against Homo sapiens (human) LOXIMVI cells after 48 hr by SRB assay.
For test [17], the system named is UACC-257. The test can be described thus: Cytotoxicity against Homo sapiens (human) UACC257 cells after 48 hr by SRB assay. The note with it: UACC-257, 48 h.
Test [18] has as its system SF-268. The test can be described thus: Cytotoxicity against Homo sapiens (human) SF268 cells after 48 hr by SRB assay. The note with it: SF-268, 48 h.
For test [19], the system named is MOLT-4. In words: Cytotoxicity against Homo sapiens (human) MOLT4 cells after 48 hr by SRB assay. The note with it: MOLT-4, 48 h.
Test [20] deals with A549. In words: Cytotoxicity against Homo sapiens (human) A549 cells after 48 hr by SRB assay. The note with it: A549, 48 h.
Test [21] in a line: Cytotoxicity against Homo sapiens (human) renal cancer cells after 48 hr by SRB assay. The note with it: Cancer cell lines.

Each structure is given as a SMILES string.

A word on the GI50: it is the concentration giving 50% growth inhibition. In general, TGI refers to the concentration at which net growth stops.

Turning to `NS(=O)(=O)c1ccc(-n2nc3c(c2-c2cccs2)Cc2ccccc2-3)cc1`, the GI50 in test [1] amounted to 20.5 µM; in test [2] it was 13.8 µM; in test [3], 14.9 µM; in test [4], 4.24 µM; in [5] it was 12.2 µM; in [6] it was 0.86 µM. In addition, the 50% growth inhibitory concentration (GI50) in [7] was 12.2 µM; in test [8], 5.56 µM; in test [9] it was 7.67 µM; in [10], 4.9 µM; in test [11], 25.5 µM; in test [12] it was 16.1 µM. Also, the GI50 in test [13] was 18.5 µM; in [14], 16.5 µM; in test [16], 6.58 µM; in test [17], 23.2 µM; in [18], over 100 µM; in test [19], 1.43 µM. Besides, the GI50 amounted to 20.7 µM in test [20] and 13.3 µM in test [21]. The values for the TGI in test [3] and in [21] were 37.2 µM and 29.7 µM, respectively. For the same compound, in test [15], the Activity entry was “<=32%”.
Consider `O=C(Nc1ccccc1)NS(=O)(=O)c1ccc(N2N=C3c4ccccc4CC3C2c2cccnc2)cc1` (configuration not stated), for which the GI50 in test [1] turned out to be 27 µM; in test [2], 20.6 µM; in test [3], 26.2 µM; in test [4] it was 40.9 µM; in test [5], 11.7 µM; in test [6], 26.6 µM. Besides, the GI50 in [7] is 30.4 µM; in test [8], 74.9 µM; in test [9], 15.3 µM; in [10], 23.7 µM; in test [11], over 100 µM; in test [12], 40.7 µM. Moreover, the GI50 in test [13] was determined as 26.8 µM; in [14], 20.4 µM; in test [16] it was 15.4 µM; in test [17], 26.6 µM; in [18], 62.1 µM; in test [19], 11.6 µM. In addition, the GI50 in [20] was found to be 29.2 µM; in [21] it was 31.7 µM. Further, the TGI came out at 78.7 µM in [3] and 86.4 µM in test [21]. Further, the Activity entry in [15] is given as “<=32%”.
On to `O=C(NC1CCCCC1)NS(=O)(=O)c1ccc(-n2nc3c(c2-c2cccs2)Cc2ccccc2-3)cc1`, for which the GI50 in test [1] is 25.3 µM; in test [2], 34.9 µM; in [3], 24.2 µM; in test [4], 1.15 µM; in test [5], 17.5 µM; in test [6] it was 10 µM. The GI50 in [7] stood at 21.5 µM; in test [8], 14.3 µM; in test [9], 31.6 µM; in test [10], 21.3 µM; in test [11], 52.2 µM; in [12], 37.5 µM. Also, the GI50 is 26.6 µM in test [13]; over 100 µM in test [14]; 5.66 µM in [16]; 24.8 µM in test [17]; over 100 µM in test [18]; 49.9 µM in test [19]. In addition, the GI50 in [20] was 28 µM; in test [21], 21.3 µM. Besides, the TGI in test [3] is 73.3 µM; in [21], 40.1 µM. Moreover, the Activity result in test [15] is “<=32%”.
Consider `O=C(Nc1ccccc1)NS(=O)(=O)c1ccc(-n2nc3c(c2-c2cccs2)Cc2ccccc2-3)cc1`, for which the GI50 in test [1] was determined as 28.3 µM; in test [2], 21.9 µM; in test [3] it was 20.4 µM; in test [4], 13.6 µM; in test [5], 4.99 µM; in test [6] it was 14 µM. Also, the GI50 in test [7] is 19.9 µM; in test [8] it was 12.3 µM; in [9] it was 9.13 µM; in test [10], 19.2 µM; in test [11] it was 70.4 µM; in [12], 16.8 µM. The GI50 in [13] amounted to 20.1 µM; in test [14], 18.1 µM; in test [16], 12 µM; in test [17], 17.7 µM; in test [18], 26 µM; in test [19], 15.5 µM. Moreover, the GI50 amounted to 20.8 µM in test [20] and 29.6 µM in test [21]. Moreover, the TGI was found to be 37.2 µM in test [3] and 42.5 µM in test [21]. In addition, in [15], the Activity result is listed as “<=32%”.
